# Source: patent US20240391862A1, “(1,4,5-TRISUBSTITUTED-1H-PYRAZOL-3-YL)OXY-2-ALKOXY ALKYL ACIDS AND THEIR DERIVATIVES, THEIR SALTS AND THEIR USE AS HERBICIDAL AGENTS” (Bayer AKtiengesellschaft, priority 2021, published 2024)
# How the values were obtained:
# TRZAS = assay: Post-emergence herbicidal effect and crop plant compatibility, greenhouse pot test; format: in vivo, Triticum aestivum; settings: 20 g/ha, one-leaf stage, rated visually after about 3 weeks vs untreated controls; for percent crop injury (phytotoxicity) to wheat, post-emergence at 20 g/ha: Triticum aestivum, 504 h, read-out: Post-emergence effect at 20 g/ha against TRZAS in %
# Summary of the method: (§1)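 Greenhouse pot test: weeds and crops sown in sandy loam, sprayed post-emergence at one-leaf stage (2–3 weeks after sowing) with WP or EC formulations plus 0.5% additive at 600 l/ha water, rates 20–320 g/ha. Visual rating about 3 weeks later versus untreated controls (100% = dead, 0% = as control).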
# ORYSA = assay: as above; format: in vivo, Oryza sativa; settings: for Post-emergence effect at 320 g/ha against ORYSA in %: one-leaf stage, rated visually after about 3 weeks vs untreated controls; for Post-emergence effect against ORYSA: visual rating about 3 weeks after treatment, crop plant
# Description: • ALOMY: Alopecurus myosuroides SETVI: Setaria viridis • AVEFA: Avena fatua POLCO: Fallopia convolvulus • AMARE: Amaranthus retroflexus ECHCG: Echinochloa crus-galli • LOLRJ: Lolium rigidum STEME: Stellaria media • VERPE: Veronica persica MATIN: Tripleurospermum inodorum • DIGSA: Digitaria sanguinalis ABUTH: Abutylon threophrasti • TRZAS: Triticum aestivum VIOTR: Viola tricolor • BRSNW: Brassica napus ZEAMX: Zea mays • PHBPU: Ipomoea purpurea GLXMA: Glycine max • ORYSA: Oryza sativa HORMU: Hordeum murinum
# Seeds of monocotyledonous and dicotyledonous weeds and crop plants are placed in sandy loam in plastic or organic planting pots, covered with soil and cultivated in a greenhouse under controlled growth conditions. 2 to 3 weeks after sowing, the trial plants are treated at the one-leaf stage. The compounds of the invention, formulated in the form of wettable powders (WP) or as emulsion concentrates (EC), are then sprayed onto the green parts of the plants as aqueous suspension or emulsion with addition of 0.5% additive at a water application rate of 600 l/ha (converted). After the test plants have been kept in the greenhouse under optimum growth conditions for about 3 weeks, the activity of the preparations is rated visually in comparison to untreated controls. For example, 100% activity=the plants have died, 0% activity=like control plants.
# Tables 20a to 38c below show the effects/crop compatibilities of selected compounds of the general formula (I) on various harmful plants at an application rate corresponding to 20 to 320 g/ha, which were obtained by the trial procedure specified above.
# ABUTH = assay: Post-emergence herbicidal effect, greenhouse pot test; format: in vivo, Abutilon theophrasti; settings: visual rating about 3 weeks after treatment
# Summary of the method: (§2)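 Visual % activity scored roughly 3 weeks post-spray against untreated plants, where 100% means death and 0% equals control. Plants were treated at the one-leaf stage, 2 to 3 weeks after sowing in sandy loam, at 20 to 320 g/ha.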
# ALOMY = assay: as above; format: in vivo, Alopecurus myosuroides; settings: 320 g/ha, visual rating about 3 weeks after treatment; for pest or weed control at 320 g/ha: Alopecurus myosuroides, 504 h, read-out: Post-emergence effect against ALOMY
# Summary of the method: as §2
# AMARE = assay: as above; format: in vivo, Amaranthus retroflexus; settings: visual rating about 3 weeks after treatment; for pest or weed control at 320 g/ha: Amaranthus retroflexus, 504 h, read-out: Post-emergence effect against AMARE
# Summary of the method: as §2
# AVEFA = assay: as above; format: in vivo, Avena fatua; settings: visual rating about 3 weeks after treatment
# Summary of the method: as §2
# DIGSA = assay: as above; format: in vivo, Digitaria sanguinalis; settings: visual rating about 3 weeks after treatment; for pest or weed control at 320 g/ha: Digitaria sanguinalis, 504 h, read-out: Post-emergence effect against DIGSA
# Summary of the method: as §2
# ECHCG = assay: as above; format: in vivo, Echinochloa crus-galli; settings: for pest or weed control at 80 g/ha / pest or weed control at 320 g/ha: Echinochloa crus-galli, 504 h, read-out: Post-emergence effect against ECHCG in %
# Summary of the method: as §2
# LOLRI = assay: as above; format: in vivo, Lolium rigidum; settings: 320 g/ha; for pest or weed control at 320 g/ha: Lolium rigidum, 504 h, read-out: Post-emergence effect against LOLRI in %
# Summary of the method: as §2
# MATIN = assay: as above; format: in vivo, Tripleurospermum inodorum
# Summary of the method: as §2
# PHBPU = assay: as above; format: in vivo, Ipomoea purpurea
# Summary of the method: as §2
# POLCO = assay: as above; format: in vivo, Fallopia convolvulus
# Summary of the method: as §2
# SETVI = assay: as above; format: in vivo, Setaria viridis
# Summary of the method: as §2
# VERPE = assay: as above; format: in vivo, Veronica persica
# Summary of the method: as §2
# VIOTR = assay: as above; format: in vivo, Viola tricolor
# Summary of the method: as §2
# ZEAMX = assay: Post-emergence herbicidal effect and crop plant compatibility, greenhouse pot test; format: in vivo, Zea mays; settings: Zea mays, 504 h, 20 g/ha, one-leaf stage, rated visually after about 3 weeks vs untreated controls, read-out: Post-emergence effect at 20 g/ha against ZEAMX in %
# Summary of the method: as §1
# [1] = Abutilon theophrasti, 504 h, 320 g/ha, read-out: Post-emergence effect against ABUTH
# [2] = Avena fatua, 504 h, 320 g/ha, read-out: Post-emergence effect against AVEFA
# [3] = Setaria viridis, 504 h, 320 g/ha, read-out: Post-emergence effect against SETVI in %
compound,measurement,setting,value
COC(=O)C(OC)Oc1nn(-c2cc(F)ccc2F)c(-c2cncc(F)c2)c1I (stereo not drawn) [Example I-28],"percent crop injury (phytotoxicity) to wheat, post-emergence at 20 g/ha",TRZAS,20%
same,Post-emergence effect at 320 g/ha against ORYSA in %,ORYSA,20%
same,pest or weed control at 80 g/ha,"ABUTH; Abutilon theophrasti, 504 h, 80 g/ha, read-out: Post-emergence effect against ABUTH",90%
same,pest or weed control at 320 g/ha,ABUTH; [1],100%
same,pest or weed control at 320 g/ha,ALOMY,90%
same,pest or weed control at 320 g/ha,AMARE; 320 g/ha,80%
same,pest or weed control at 80 g/ha,"AVEFA; Avena fatua, 504 h, 80 g/ha, read-out: Post-emergence effect against AVEFA",80%
same,pest or weed control at 320 g/ha,AVEFA; [2],90%
same,pest or weed control at 320 g/ha,DIGSA; 320 g/ha,80%
same,pest or weed control at 80 g/ha,ECHCG; 80 g/ha,90%
same,pest or weed control at 320 g/ha,ECHCG; 320 g/ha,90%
same,pest or weed control at 320 g/ha,LOLRI,90%
same,pest or weed control at 20 g/ha,"MATIN; Tripleurospermum inodorum, 504 h, 20 g/ha, read-out: Post-emergence effect against MATIN in %",80%
same,pest or weed control at 80 g/ha,"MATIN; Tripleurospermum inodorum, 504 h, 80 g/ha, read-out: Post-emergence effect against MATIN in %",90%
same,pest or weed control at 320 g/ha,"MATIN; Tripleurospermum inodorum, 504 h, 320 g/ha, read-out: Post-emergence effect against MATIN in %",90%
same,pest or weed control at 20 g/ha,"PHBPU; Ipomoea purpurea, 504 h, 20 g/ha, read-out: Post-emergence effect against PHBPU in %",80%
same,pest or weed control at 80 g/ha,"PHBPU; Ipomoea purpurea, 504 h, 80 g/ha, read-out: Post-emergence effect against PHBPU in %",90%
same,pest or weed control at 320 g/ha,"PHBPU; Ipomoea purpurea, 504 h, 320 g/ha, read-out: Post-emergence effect against PHBPU in %",90%
same,pest or weed control at 320 g/ha,"POLCO; Fallopia convolvulus, 504 h, 320 g/ha, read-out: Post-emergence effect against POLCO in %",80%
same,pest or weed control at 80 g/ha,"SETVI; Setaria viridis, 504 h, 80 g/ha, read-out: Post-emergence effect against SETVI in %",80%
same,pest or weed control at 320 g/ha,SETVI; [3],90%
same,pest or weed control at 320 g/ha,"VERPE; Veronica persica, 504 h, 320 g/ha, read-out: Post-emergence effect against VERPE in %",80%
same,pest or weed control at 20 g/ha,"VIOTR; Viola tricolor, 504 h, 20 g/ha, read-out: Post-emergence effect against VIOTR in %",80%
same,pest or weed control at 80 g/ha,"VIOTR; Viola tricolor, 504 h, 80 g/ha, read-out: Post-emergence effect against VIOTR in %",90%
same,pest or weed control at 320 g/ha,"VIOTR; Viola tricolor, 504 h, 320 g/ha, read-out: Post-emergence effect against VIOTR in %",90%
COC(=O)C(OC)Oc1nn(-c2cnccn2)c(-c2ccc(F)nc2)c1Cl (stereo not drawn) [Example I-35],plant injury at 20 g/ha,ZEAMX,20%
same,"percent crop injury (phytotoxicity) to wheat, post-emergence at 20 g/ha",TRZAS,20%
same,Post-emergence effect at 320 g/ha against ORYSA in %,ORYSA,10%
same,pest or weed control at 320 g/ha,ABUTH; [1],80%
same,pest or weed control at 320 g/ha,ALOMY,90%
same,pest or weed control at 320 g/ha,AMARE; 320 g/ha,80%
same,pest or weed control at 320 g/ha,AVEFA; [2],80%
same,pest or weed control at 320 g/ha,DIGSA; 320 g/ha,80%
same,pest or weed control at 80 g/ha,ECHCG; 80 g/ha,80%
same,pest or weed control at 320 g/ha,ECHCG; 320 g/ha,90%
same,pest or weed control at 320 g/ha,LOLRI,80%
same,pest or weed control at 320 g/ha,SETVI; [3],80%
COC(=O)C(OC)Oc1nn(-c2cccc(Cl)c2F)c(-c2cncc(F)c2)c1Br (stereo not drawn) [Example I-17],Post-emergence effect at 20 g/ha against TRZAS in %,TRZAS,10%
same,Post-emergence effect against ORYSA,ORYSA; 20 g/ha,0%
same,Post-emergence effect against ORYSA,ORYSA; 80 g/ha,20%
same,Post-emergence effect against ABUTH,ABUTH; 20 g/ha,80%
same,Post-emergence effect against ABUTH,ABUTH; 80 g/ha,90%
same,Post-emergence effect against ABUTH,ABUTH; 320 g/ha,90%
same,Post-emergence effect against ALOMY,ALOMY,90%
same,Post-emergence effect against AMARE,AMARE; 20 g/ha,80%
same,Post-emergence effect against AMARE,AMARE; 80 g/ha,80%
same,Post-emergence effect against AMARE,AMARE; 320 g/ha,80%
same,Post-emergence effect against AVEFA,AVEFA; 320 g/ha,90%
same,Post-emergence effect against DIGSA,DIGSA; 80 g/ha,80%
same,Post-emergence effect against DIGSA,DIGSA; 320 g/ha,90%
same,Post-emergence effect against ECHCG in %,ECHCG; 80 g/ha,80%
same,Post-emergence effect against ECHCG in %,ECHCG; 320 g/ha,90%
same,Post-emergence effect against LOLRI in %,LOLRI,80%
same,Post-emergence effect against MATIN in %,MATIN; 20 g/ha,80%
same,Post-emergence effect against MATIN in %,MATIN; 80 g/ha,80%
same,Post-emergence effect against MATIN in %,MATIN; 320 g/ha,80%
same,Post-emergence effect against PHBPU in %,PHBPU; 20 g/ha,90%
same,Post-emergence effect against PHBPU in %,PHBPU; 80 g/ha,90%
same,Post-emergence effect against PHBPU in %,PHBPU; 320 g/ha,90%
same,Post-emergence effect against POLCO in %,POLCO; 80 g/ha,80%
same,Post-emergence effect against POLCO in %,POLCO; 320 g/ha,80%
same,Post-emergence effect against SETVI in %,SETVI; 80 g/ha,80%
same,Post-emergence effect against SETVI in %,SETVI; 320 g/ha,90%
same,Post-emergence effect against VERPE in %,VERPE; 20 g/ha,80%
same,Post-emergence effect against VERPE in %,VERPE; 80 g/ha,80%
same,Post-emergence effect against VERPE in %,VERPE; 320 g/ha,90%
same,Post-emergence effect against VIOTR in %,VIOTR; 20 g/ha,90%
same,Post-emergence effect against VIOTR in %,VIOTR; 80 g/ha,90%
same,Post-emergence effect against VIOTR in %,VIOTR; 320 g/ha,90%
